Source: ChEMBL document CHEMBL5108063, “Discovery, Chemistry, and Preclinical Development of Pritelivir, a Novel Treatment Option for Acyclovir-Resistant Herpes Simplex Virus Infections” (J Med Chem, 2022)

Legend:
Human alphaherpesvirus 1 [1] = experiment: Antiviral activity against HSV-1 infected in Vero cells incubated for 5 days by fluorescence based microtiter plate reader assay; assay type: functional, organism-based; settings: Human alphaherpesvirus 1, Vero, 120 h
Human alphaherpesvirus 2 [2] = experiment: Antiviral activity against HSV-2 infected in Vero cells incubated for 5 days by fluorescence based microtiter plate reader assay; assay type: functional, organism-based; settings: Human alphaherpesvirus 2, Vero, 120 h
Human alphaherpesvirus 1 [3] = experiment: Antiviral activity against HSV-1 infected in po dosed BALB/c mouse administered twice on infection day and three times daily from day 1 to 4 post infection; assay type: functional; settings: Human alphaherpesvirus 1, 96 h, time 4 day
Human alphaherpesvirus 2 [4] = experiment: Antiviral activity against HSV-2 infected in po dosed BALB/c mouse administered twice on infection day and three times daily from day 1 to 4 post infection; assay type: functional; settings: Human alphaherpesvirus 2, 24 h
Carbonic anhydrase 2 = Carbonic anhydrase 2 (Homo sapiens, UniProt P00918); experiment: Inhibition of carbonic anhydrase 2 (unknown origin) by CO2 hydration assay
Human alphaherpesvirus 1 [5] = experiment: Antiviral activity against HSV-1 McKrae infected in BALB/c mouse assessed as reduction in viral load at 50 mg/kg, po infected with virus for 35 days prior to heat stress reactivation followed by compound treatment immediately and at 12 hrs post reactivation measured after 24 hrs post reactivation; assay type: functional; set-up: scale not given: the % may be the effect or the level left
[6] = AUC in rat at 1 mg/kg, po; assay type: ADME, organism-based; set-up: dose 1 mg/kg, route po; settings: in vivo
[7] = AUC in dog at 1 mg/kg, po; assay type: ADME, organism-based, Canis lupus familiaris; set-up: dose 1 mg/kg, route po; settings: in vivo
[8] = AUC in monkey at 1 mg/kg, po; assay type: ADME, organism-based, Macaca mulatta; set-up: dose 1 mg/kg, route po; settings: rhesus monkey, in vivo
[9] = AUC in human at 1 mg/kg, po; assay type: ADME, organism-based; set-up: dose 1 mg/kg, route po; settings: in vivo
[10] = Half life in rat at 1 mg/kg, po; assay type: ADME, organism-based; settings: in vivo
[11] = Half life in dog at 1 mg/kg, po; assay type: ADME, organism-based, Canis lupus familiaris; settings: in vivo
[12] = Half life in monkey at 1 mg/kg, po; assay type: ADME, organism-based, Macaca mulatta; settings: rhesus monkey, in vivo
[13] = Half life in human at 1 mg/kg, po; assay type: ADME, organism-based; settings: in vivo
[14] = Oral bioavailability in rat at 1 mg/kg; assay type: ADME, organism-based; settings: in vivo
[15] = Oral bioavailability in dog at 1 mg/kg; assay type: ADME, organism-based, Canis lupus familiaris; settings: in vivo
[16] = Oral bioavailability in monkey at 1 mg/kg; assay type: ADME, organism-based, Macaca mulatta; settings: rhesus monkey, in vivo
[17] = Oral bioavailability in human at 1 mg/kg; assay type: ADME, organism-based; settings: in vivo
[18] = Protein binding in mouse plasma assessed as unbound fraction; assay type: ADME, cell-free
[19] = Protein binding in rat plasma assessed as unbound fraction; assay type: ADME, cell-free
[20] = Protein binding in guinea pig plasma assessed as unbound fraction; assay type: ADME, cell-free, Cavia porcellus
[21] = Protein binding in rabbit plasma assessed as unbound fraction; assay type: ADME, cell-free, Oryctolagus cuniculus
[22] = Protein binding in dog plasma assessed as unbound fraction; assay type: ADME, cell-free, Canis lupus familiaris
[23] = Protein binding in minipig plasma assessed as unbound fraction; assay type: ADME, cell-free, Sus scrofa domesticus; settings: pig
[24] = Protein binding in monkey plasma assessed as unbound fraction; assay type: ADME, cell-free, Macaca mulatta; settings: rhesus monkey
[25] = Protein binding in human plasma assessed as unbound fraction; assay type: ADME, cell-free
[26] = biological target: Voltage-gated inwardly rectifying potassium channel KCNH2 (Homo sapiens, UniProt Q12809); experiment: Inhibition of human ERG expressed in HEK293 cells by whole cell patch clamp assay; assay type: toxicity, cell-based
Sequence of Voltage-gated inwardly rectifying potassium channel KCNH2 (Q12809 whole entry): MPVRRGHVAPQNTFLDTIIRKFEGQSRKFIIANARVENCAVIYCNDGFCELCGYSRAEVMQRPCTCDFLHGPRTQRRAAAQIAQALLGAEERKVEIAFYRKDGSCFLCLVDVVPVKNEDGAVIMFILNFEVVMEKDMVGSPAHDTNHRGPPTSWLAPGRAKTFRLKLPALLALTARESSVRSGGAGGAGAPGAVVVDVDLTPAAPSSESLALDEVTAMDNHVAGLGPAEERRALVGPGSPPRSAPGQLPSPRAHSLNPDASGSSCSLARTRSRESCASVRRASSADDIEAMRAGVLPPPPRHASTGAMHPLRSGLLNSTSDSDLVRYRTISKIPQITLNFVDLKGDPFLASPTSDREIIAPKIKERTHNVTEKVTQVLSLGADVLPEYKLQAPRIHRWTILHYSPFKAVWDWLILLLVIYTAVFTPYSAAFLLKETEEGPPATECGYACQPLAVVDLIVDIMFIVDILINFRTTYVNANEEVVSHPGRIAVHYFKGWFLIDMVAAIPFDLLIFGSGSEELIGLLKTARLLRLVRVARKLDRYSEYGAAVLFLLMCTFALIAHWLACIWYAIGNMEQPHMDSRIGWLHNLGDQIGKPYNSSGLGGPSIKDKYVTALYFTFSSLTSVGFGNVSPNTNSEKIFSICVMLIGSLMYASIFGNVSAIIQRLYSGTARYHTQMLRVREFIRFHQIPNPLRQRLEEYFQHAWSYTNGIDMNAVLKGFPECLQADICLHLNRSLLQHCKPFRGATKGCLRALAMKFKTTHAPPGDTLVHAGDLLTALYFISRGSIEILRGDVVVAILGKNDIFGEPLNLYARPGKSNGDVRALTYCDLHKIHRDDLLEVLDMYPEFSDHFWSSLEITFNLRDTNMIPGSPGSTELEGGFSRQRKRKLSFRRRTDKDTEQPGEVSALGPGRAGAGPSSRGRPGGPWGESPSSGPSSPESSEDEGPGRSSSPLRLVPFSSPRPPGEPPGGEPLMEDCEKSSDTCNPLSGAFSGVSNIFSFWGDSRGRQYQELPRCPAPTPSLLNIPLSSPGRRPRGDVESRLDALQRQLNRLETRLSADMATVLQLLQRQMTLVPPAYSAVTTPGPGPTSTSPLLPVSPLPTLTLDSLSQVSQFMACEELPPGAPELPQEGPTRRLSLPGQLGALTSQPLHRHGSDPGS

[27] = Terminal elimination half life in human at […]; assay type: ADME, organism-based; settings: in vivo, read-out: beta t1/2 (converted)
[28] = Oral bioavailability in human at 400 mg administered as 1 hr intravenous infusion; assay type: ADME, organism-based; settings: in vivo
[29] = Octanol/water partition coefficient, log P of the compound; assay type: physicochemical
[30] = Oral bioavailability in rat; assay type: ADME, organism-based; settings: in vivo
[31] = Oral bioavailability in dog; assay type: ADME, organism-based, Canis lupus familiaris; settings: in vivo
[32] = Oral bioavailability in monkey; assay type: ADME, organism-based, Macaca mulatta; settings: rhesus monkey, in vivo
[33] = Oral bioavailability in human at 350 mg administered as 1 hr intravenous infusion once a week and measured upto 24 hrs; assay type: ADME, organism-based; settings: in vivo

Cc1nc(N(C)C(=O)Cc2ccc(-c3ccccc3)cc2)sc1S(=O)(=O)NCCO
IC50 (Human alphaherpesvirus 1 [1]): 0.75 nM
IC50 (Human alphaherpesvirus 2 [2]): 5 nM

Cc1nc(N(C)C(=O)Cc2ccc(-c3ccccn3)cc2)sc1S(N)(=O)=O
IC50 (Human alphaherpesvirus 1 [1]): 20 nM
IC50 (Human alphaherpesvirus 2 [2]): 16 nM
ED50 (Human alphaherpesvirus 1 [3]): 22 mg/kg
ED50 (Human alphaherpesvirus 2 [4]): 16 mg/kg
IC50 (Carbonic anhydrase 2): 2000 nM
Activity (Human alphaherpesvirus 1 [5]): 32%
AUC [6]: 12900 ng·h/mL
AUC [7]: 54200 ng·h/mL
AUC [8]: 39500 ng·h/mL
AUC [9]: 90800 ng·h/mL
t1/2 [10]: 5 h
t1/2 [11]: 22 h
t1/2 [12]: 30 h
half-life [13]: 60 h
bioavailability [14]: 65%
bioavailability [15]: 83%
F [16]: 63%
F [17]: 73%
Fu [18]: 0.97%
Fu [19]: 1.2%
Fu [20]: 5.9%
Fu [21]: 3.4%
Fu [22]: 1%
Fu [23]: 2.5%
Fu [24]: 0.75%
Fu [25]: 2.7%
IC50 [26]: 160000 nM
half-life [27]: 60 h
bioavailability [28]: 60%

CNS(=O)(=O)c1sc(N(C)C(=O)Cc2ccc(-c3ccccc3)cc2)nc1C
IC50 (Human alphaherpesvirus 1 [1]): 0.5 nM
IC50 (Human alphaherpesvirus 2 [2]): 50 nM

Cc1nc(N(C)C(=O)Cc2ccc(-n3cccn3)cc2)sc1S(N)(=O)=O
IC50 (Human alphaherpesvirus 1 [1]): 10 nM
IC50 (Human alphaherpesvirus 2 [2]): 100 nM

Cc1nc(N(C)C(=O)Cc2ccc(-c3ccccc3)cc2)sc1S(N)(=O)=O
IC50 (Human alphaherpesvirus 1 [1]): < 0.05 nM
IC50 (Human alphaherpesvirus 2 [2]): 5 nM

CNS(=O)(=O)c1ccc2c(c1)N(C(=O)Nc1ccc(N3CCCC3)cc1)C(C)C2 (centres undefined)
IC50 (Human alphaherpesvirus 1 [1]): 25 nM
IC50 (Human alphaherpesvirus 2 [2]): 40 nM

Cc1ccc(F)cc1-c1ccc(CC(=O)N(C)c2nc(C)c(S(N)(=O)=O)s2)cc1
IC50 (Human alphaherpesvirus 1 [1]): 100 nM
IC50 (Human alphaherpesvirus 2 [2]): 125 nM

CC1Cc2ccc(S(N)(=O)=O)cc2N1C(=O)Nc1ccc(-c2ccccc2)cc1 (centres undefined)
IC50 (Human alphaherpesvirus 1 [1]): 10 nM
IC50 (Human alphaherpesvirus 2 [2]): 60 nM

Cc1nc(N(C)C(=O)Cc2ccc(-c3ccccc3)cc2)sc1S(=O)(=O)NCCN
IC50 (Human alphaherpesvirus 1 [1]): 100 nM

COc1ccccc1-c1ccc(CC(=O)N(C)c2nc(C)c(S(N)(=O)=O)s2)cc1
IC50 (Human alphaherpesvirus 1 [1]): 2 nM
IC50 (Human alphaherpesvirus 2 [2]): 0.05 nM

Cc1nc(N(C)C(=O)Cc2ccc(-c3c(C)noc3C)cc2)sc1S(N)(=O)=O
IC50 (Human alphaherpesvirus 1 [1]): > 5 nM

CC1Cc2ccc(S(=O)(=O)NC3CC3)cc2N1C(=O)Nc1ccc(-c2ccccc2)cc1 (centres undefined)
IC50 (Human alphaherpesvirus 1 [1]): 50 nM
IC50 (Human alphaherpesvirus 2 [2]): 150 nM

Cc1nc(NC(=O)Nc2ccc(N3CCOCC3)cc2)sc1S(=O)(=O)N(C)C
IC50 (Human alphaherpesvirus 1 [1]): 2000 nM
IC50 (Human alphaherpesvirus 2 [2]): 4000 nM

Cc1nc(N(C)C(=O)Nc2ccc(-c3ccccc3)cc2)sc1S(=O)(=O)NC1CC1
IC50 (Human alphaherpesvirus 1 [1]): 20 nM
IC50 (Human alphaherpesvirus 2 [2]): 100 nM

CS(=O)(=O)O.Cc1nc(N(C)C(=O)Cc2ccc(-c3ccccn3)cc2)sc1S(N)(=O)=O.O
logP [29]: 1.745

Cc1nc(N(C)C(=O)Cc2ccc(-c3ccccc3)cc2)sc1S(=O)(=O)NCC(F)(F)F
IC50 (Human alphaherpesvirus 1 [1]): 50 nM
IC50 (Human alphaherpesvirus 2 [2]): 150 nM

COc1ccc(F)cc1-c1ccc(CC(=O)N(C)c2nc(C)c(S(N)(=O)=O)s2)cc1
IC50 (Human alphaherpesvirus 1 [1]): 0.25 nM
IC50 (Human alphaherpesvirus 2 [2]): < 0.05 nM

Cc1nc(C(C)C(=O)Nc2ccc(-c3ccccc3)cc2)sc1S(N)(=O)=O (centres undefined)
IC50 (Human alphaherpesvirus 1 [1]): 50 nM
IC50 (Human alphaherpesvirus 2 [2]): 10 nM

Cc1nc(N(C)C(=O)Cc2ccc(-c3cccnc3)cc2)sc1S(N)(=O)=O
IC50 (Human alphaherpesvirus 1 [1]): 5 nM
IC50 (Human alphaherpesvirus 2 [2]): 5 nM

Cc1nc(N(C)C(=O)Nc2ccc(N3CCOCC3)cc2)sc1S(=O)(=O)N(C)C
IC50 (Human alphaherpesvirus 1 [1]): 750 nM
IC50 (Human alphaherpesvirus 2 [2]): 1500 nM

CNS(=O)(=O)c1sc(N(C)C(=O)Nc2ccc(-c3ccccc3)cc2)nc1C
IC50 (Human alphaherpesvirus 1 [1]): 1 nM
IC50 (Human alphaherpesvirus 2 [2]): 5 nM

Nc1nc2c(ncn2COCCO)c(=O)[nH]1 [ACYCLOVIR]
ED50 (Human alphaherpesvirus 2 [4]): 0.5 mg/kg
bioavailability [30]: 65%
bioavailability [31]: 83%
bioavailability [32]: 63%
bioavailability [33]: 54%

Nc1nc2c(ncn2CCC(CO)CO)c(=O)[nH]1 [PENCICLOVIR]
bioavailability [28]: 60%

CC(C)[C@H](N)C(=O)OCCOCn1cnc2c(=O)nc(N)[nH]c21 [VALACYCLOVIR]
ED50 (Human alphaherpesvirus 1 [3]): 17 mg/kg
ED50 (Human alphaherpesvirus 2 [4]): 14 mg/kg
